The source of these data is US20220000841A1, “INHIBITORS OF METALLO-BETA-LACTAMASES” (CENTRE NATIONAL DE LA RECHERCHE SCIENTIFIQUE, priority 2018, published 2022).

pKi: −log10 of the molar value. Where two headings read alike, the source gives them in different places.

The subject of series [1] is E. coli LZ2310[pLBII-VIM2] (E. coli K12 ΔnorE ΔmdfA N43 acrA1). It counts as cell-based, Escherichia coli. To be noted: EDTA 220 μg added to cefoxitin disk (30 μg); cefoxitin alone 14 mm. The method, then: (§1) A] A disk-diffusion test in which the inhibitor was added (40-320 μg) to a disk containing a defined amount of a β-lactam antibiotic (such as 30 μg cefoxitin) was used to evaluate the antimicrobial activity (corresponding to the diameter of the growth inhibition zone, expressed in mm) of the combination when compared of that of the antibiotic alone.
(§2) These tests were performed on isogenic laboratory strains (such as Escherichia coli DH5a or XL-1) producing a defined MBL after its transformation with a pLB-II plasmid derivative (such as pLBII-VIM-2) [Borgianni L., Vandenameele J., Matagne A., Bini L., Bonomo R. A., Frere J. M., Rossolini G. M., Docquier J. D. (2010) Antimicrob. Agents Chemother. 54, 3197-3204] harbouring a cloned gene encoding the functional metallo-β-lactamase. Alternatively, hyperpermeable strains (such as Escherichia coli AS19) were used instead of Escherichia coli DH5α or XL-1.

Series [2] concerns E. coli AS19 [pLBII-VIM2]. As to the kind of experiment: microbe, parasite or virus in culture. It counts as cell-based, Escherichia coli. As to conditions: for zone of inhibition at 40 µg/disc: Escherichia coli, read-out: Inhibition zone diameter AS 19, difference between measured diameter and diameter without compound. As for the experimental part: as §1, §2
Another series concerns the target NDM-1 (Klebsiella pneumoniae, UniProt C7C422). The experiment in a line: Enzymatic assay for determination of inhibition constants, reporter substrate method, purified NDM-1.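 Further: purified enzyme activity followed as absorbance change from reporter substrate hydrolysis on a UV-Vis spectrophotometer or plate reader, 50 mM HEPES pH 7.5.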 It counts as biochemical. As to conditions: isolated MBL, competitive inhibition model.
For the next series, the target named is VIM-2 (Escherichia coli, UniProt Q5U7L7). The experiment in a line: Enzymatic assay for determination of inhibition constants, reporter substrate method, purified VIM-2.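 Further: purified VIM-2 hydrolysing a reporter substrate (imipenem, meropenem, cefotaxime or nitrocefin), reaction rate read as absorbance change, HEPES 50 mM at pH 7.5.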 It counts as biochemical.
For another series, the target named is IMP-1 (Serratia marcescens, UniProt P52699). The experiment in a line: Enzymatic assay for determination of inhibition constants, reporter substrate method, purified IMP-1.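 On all read-outs here: purified IMP-1 (1-70 nM) hydrolysing a reporter substrate, initial rates followed as absorbance change at 260, 300 or 482 nm in 50 mM HEPES pH 7.5.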 It counts as biochemical. To be noted: for pKi: isolated MBL, competitive inhibition model.
In another series the target is VIM-4 (Pseudomonas aeruginosa, UniProt Q8KRJ3). The experiment in a line: Enzymatic assay for determination of inhibition constants, reporter substrate method, purified VIM-4.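 Further: purified VIM-4 (1-70 nM) in 50 mM HEPES pH 7.5, reporter substrate hydrolysis rate tracked by absorbance change (nitrocefin 482 nm, imipenem or meropenem 300 nm, cefotaxime 260 nm).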 It counts as biochemical. To be noted: at 100 μM (maximal tested concentration).
Another series deals with VIM-1 (Pseudomonas aeruginosa, UniProt A0A0F7KYQ8). As to the kind of experiment: Enzymatic assay for determination of inhibition constants, reporter substrate method, purified VIM-1.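 Further: initial hydrolysis rates of a reporter β-lactam (imipenem, meropenem, cefotaxime or nitrocefin) followed by absorbance change, purified enzyme at 1–70 nM in 50 mM HEPES pH 7.5.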 It counts as biochemical. To be noted: isolated MBL, competitive inhibition model.
The subject of series [3] is K. pneumoniae SI-001 (blaVIM-1+). The experiment in a line: Broth microdilution MIC of meropenem in absence and presence of MBL inhibitor, SI-001. It counts as cell-based. To be noted: MBL inhibitor fixed at 32 μg/ml, Mueller-Hinton broth, duplicate. Background: In broth dilution the organism is exposed to a series of concentrations in liquid medium.
Protocol: (§3) This method was performed in agreement with the CLSI recommendations (document M07-A10, 2015, “Methods for Dilution Antimicrobial Susceptibility Tests for Bacteria That Grow Aerobically”).
(§4) MIC values of meropenem (MEM) were determined in duplicate in Mueller-Hinton broth as recommended by CLSI (document M07-A10, 2015), in absence and presence of a fixed concentration of MBL inhibitor (32 μg/ml).
The subject of series [4] is K. pneumoniae S1-002 (blaVIM-4+). The experiment in a line: Broth microdilution MIC of meropenem in absence and presence of MBL inhibitor, S1-002. It counts as cell-based. To be noted: MBL inhibitor fixed at 32 μg/ml, Mueller-Hinton broth, duplicate.
Protocol: as §3, §4
The nature of series [5]: Cell membrane integrity assay, LDH release, compound cytotoxicity. It counts as cell-based. As to conditions: human, HeLa cells, 0.001 to 1.2 mM, read-out: IC50, compound concentration inducing 50% cytotoxicity (LDH release). As for the experimental part: Selected compounds were tested for their ability to induce the lysis of eukaryotic cells by measuring the release of lactate dehydrogenase enzyme (LDH) from HeLa cells, after incubating such cells for 24 hours (37° C., 5% CO2) in Dulbecco's modified Eagle medium supplemented with 10% fetal bovine serum, 4.5 mg/ml glucose and 2 mM L-glutamine in the absence and presence of the compound at concentrations ranging from 0.001 to 1.2 mM. LDH activity was determined using commercial kits (such as the CytoTox 96® Non-Radioactive Cytotoxicity Assay, Promega, Madison, Wis., U.S.A.) in the samples, containing HeLa cells incubated with the various concentrations of the assayed compound or with the solvent or buffer used to resuspend such compounds (vehicle control).
Further controls included samples containing the medium only (medium control) or in which cell lysis was induced by the addition of 9% Triton X-100 (maximum LDH release control). The percentage of cytotoxicity was computed as 100×(Sample LDH release)/(maximum LDH release). The variation of the percentage of cytotoxicity is usually dependent on the compound concentration and allowed to compute an IC50 value, corresponding to the compound concentration inducing 50% cytoxicity.
(In general: Release of lactate dehydrogenase indicates damage to the cell membrane.)

Setting [6] is: as listed in Table 2, read-out: Ki on VIM-2.
Setting [7] is: isolated MBL, competitive inhibition model, read-out: Ki VIM-2.

Chain of IMP-1 (P52699 19-246, looked up, species assumed): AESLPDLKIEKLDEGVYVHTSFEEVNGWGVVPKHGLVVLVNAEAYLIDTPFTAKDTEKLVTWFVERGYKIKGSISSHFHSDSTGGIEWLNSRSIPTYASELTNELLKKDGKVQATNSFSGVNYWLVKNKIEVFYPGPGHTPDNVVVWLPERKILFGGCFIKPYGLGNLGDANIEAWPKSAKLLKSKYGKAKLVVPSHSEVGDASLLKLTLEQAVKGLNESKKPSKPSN
Chain of NDM-1 (C7C422 29-270, looked up, species assumed): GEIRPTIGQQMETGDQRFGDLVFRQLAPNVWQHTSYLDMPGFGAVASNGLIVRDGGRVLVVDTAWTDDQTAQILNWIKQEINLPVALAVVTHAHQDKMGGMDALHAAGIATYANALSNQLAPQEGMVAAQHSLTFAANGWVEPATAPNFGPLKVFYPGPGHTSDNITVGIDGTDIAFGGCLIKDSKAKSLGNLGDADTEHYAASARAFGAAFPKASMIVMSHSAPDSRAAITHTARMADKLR
Protocol for IMP-1: (§5) The reaction rate was measured as the variation of absorbance observed upon substrate hydrolysis in a UV-Vis spectrophotometer or microplate reader at a wavelength of 300 nm (imipenem, meropenem), 260 nm (cefotaxime) or 482 nm (nitrocefin) in 50 mM HEPES buffer (pH 7.5) and in the presence of a purified MBL enzyme (such as VIM-1, VIM-2, VIM-4, NDM-1 and IMP-1, at a final concentration ranging 1-70 nM).
(§6) The inhibition constants (Ki) were determined on the basis of a model of competitive inhibition by analyzing the dependence of the ratio v0/vi (v0, hydrolysis velocity in the absence of inhibitor; vi, hydrolysis velocity in the presence of inhibitor) as a function of [I] as already described [Docquier J. D., Lamotte-Brasseur J., Galleni M., Amicosante G., Frère J. M., Rossolini G. M. (2003) J. Antimicrob. […] The slope of the plot of v0/vi vs [I], which corresponds to Km^S/(Km^S+[S])Ki (where Km^S is the Km value of the reporter substrate and [S] its concentration in the reaction mixture) and allowed the calculation of the Ki value. Alternatively, a Dixon plot analysis was carried out, by measuring the initial hydrolysis rates in the presence of variable concentrations of inhibitor and substrate.
Protocol for VIM-2: as §5, §6

As for `O=C(O)CN(CCN(CC(=O)O)CC(=O)O)CC(=O)O` [EDTA, reference compound], in [1], the “Inhibition zone diameter LZ 2310” value is 30 mm. Also, the “Inhibition zone diameter AS 19” value in series [2] (EDTA 220 μg added to cefoxitin disk (30 μg), cefoxitin alone 16 mm) came to 26 mm.
As a reminder, the pKi is the negative decadic logarithm of the Ki, by convention in mol/L. For orientation: melting point means the temperature of the solid-liquid transition. `COc1ccc(O)c(-c2n[nH]c(=S)n2CCc2ccccc2C(=O)O)c1` [Compound 4, 2-{2-[3-(2-hydroxy-5-methoxyphenyl)-5-sulfanylidene-4,5-dihydro-1H-1,2,4-triazol-4-yl]ethyl}benzoic acid] came in with a melting point of 88 to 89 °C. In addition, at NDM-1, the pKi was < 4.00. The pKi at VIM-2 (setting [6]) was > 6.00. Also, the pKi on VIM-2 (setting [7]) was > 6.00. The pKi at IMP-1 was < 4.00. In series [2], the zone of inhibition at 40 µg/disc came out at 4 mm. For the same molecule, the “% inhibition VIM-4” value at VIM-4 came out at 80% at 100 μM. Further, the pKi on VIM-1 was < 4.00.
`S=c1[nH]nc(-c2ccccc2)n1CCSCc1ccccc1` [Compound 33, 4-[2-(benzylsulfanyl)ethyl]-3-phenyl-4,5-dihydro-1H-1,2,4-triazole-5-thione]: the melting point fell in the range of 108 to 109 °C. The molecule also showed a pKi on NDM-1 of 5.00 to 6.00. In addition, at VIM-2 (setting [7]), the pKi was 5.00 to 6.00. The negative logarithm of the Ki (pKi) at IMP-1 was < 4.00. Besides, the “MIC potentiation of meropenem (x.log2 dilutions), K. pneumoniae SI-001 (blaVIM-1+)” value in series [3] worked out at 3 log2 dilutions. The “MIC potentiation of meropenem (x.log2 dilutions), K. pneumoniae S1-002 (blaVIM-4+)” value in series [4] was determined as 2 log2 dilutions. Further, the pKi at VIM-1 is > 6.00.
Turning to `O=C(O)c1ccccc1CCn1c(-c2cccs2)n[nH]c1=S` [Compound 13, 2-{2-[3-(thiophen-2-yl)-5-sulfanylidene-4,5-dihydro-1H-1,2,4-triazol-4-yl]ethyl}benzoic acid], the melting point lay in the range of 195 to 196 °C. For the same molecule, the pKi at NDM-1 is < 4.00. The pKi on VIM-2 (setting [6]) was 5.00 to 6.00. For the same molecule, the pKi on VIM-2 (setting [7]) was 5.00 to 6.00. Also, the pKi on IMP-1 is < 4.00. The zone of inhibition at 40 µg/disc in series [2] was 4 mm. The pKi at VIM-1 was < 4.00. Besides, in series [5], the IC50 at 24 h is > 1200 µM.
`Cc1ccccc1-c1n[nH]c(=S)n1CCc1ccccc1C(=O)O` [Compound 14, 2-{2-[3-(2-methylphenyl)-5-sulfanylidene-4,5-dihydro-1H-1,2,4-triazol-4-yl]ethyl}benzoic acid] came in with a melting point of 180 to 181 °C. For the same molecule, the pKi at NDM-1 is < 4.00. On VIM-2 (setting [6]), the pKi was > 6.00. The pKi on VIM-2 (setting [7]) is > 6.00. Also, at IMP-1, the pKi is < 4.00. The zone of inhibition at 40 µg/disc in series [2] worked out at 3 mm. The “% inhibition VIM-4” value at VIM-4 is on record as 80% at 100 μM. Further, the pKi on VIM-1 is 5.00 to 6.00. Also, the IC50 at 24 h in series [5] is > 1200 µM.
`O=C(O)c1ccccc1CCn1c(-c2ccco2)n[nH]c1=S` [Compound 12, 2-{2-[3-(furan-2-yl)-5-sulfanylidene-4,5-dihydro-1H-1,2,4-triazol-4-yl]ethyl}benzoic acid] registered a melting point of 210 to 211 °C. In addition, the pKi on NDM-1 was < 4.00. Further, the pKi on VIM-2 (setting [6]) is > 6.00. Moreover, the pKi on VIM-2 (setting [7]) was > 6.00. Besides, the pKi on IMP-1 is < 4.00. In series [2], the zone of inhibition at 40 µg/disc stood at 3 mm. In addition, the “% inhibition VIM-4” value on VIM-4 is given as 70% at 100 μM. Moreover, in [5], the IC50 at 24 h was > 1200 µM.
Take `O=C(O)CCCCn1c(-c2ccccc2)n[nH]c1=S` [Compound 15, 5-(3-phenyl-5-sulfanylidene-4,5-dihydro-1H-1,2,4-triazol-4-yl)pentanoic acid]: the melting point fell in the range of 176 to 177 °C. Further, the pKi at NDM-1 was < 4.00. Also, the pKi on VIM-2 (setting [6]) is 5.00 to 6.00. At VIM-2 (setting [7]), the pKi was 5.00 to 6.00. In addition, at IMP-1 (at 200 μM (maximal tested concentration)), the “% inhibition IMP-1” value stood at 60% at 200 μM. Moreover, the zone of inhibition at 40 µg/disc in series [2] is 3 mm. Moreover, on VIM-4, the “% inhibition VIM-4” value is on record as 85% at 100 μM. The pKi on VIM-1 is < 4.00.
In the case of `O=C(O)C(CCCn1c(-c2ccccc2)n[nH]c1=S)N(Cc1ccccc1)Cc1ccccc1` (stereo not drawn) [Compound 68, 2-[Bis(phenylmethyl)amino]-5-(3-phenyl-5-sulfanylidene-4,5-dihydro-1H-1,2,4-triazol-4-yl)pentanoic acid], the negative logarithm of the Ki (pKi) on NDM-1, at IMP-1 and on VIM-1 was < 4.00 throughout. Further, the “% inhibition VIM-2” value on VIM-2 (at 100 μM (maximal tested concentration)) came out at 65% at 100 μM. Further, the “MIC potentiation of meropenem (x.log2 dilutions), K. pneumoniae SI-001 (blaVIM-1+)” value in series [3] was 2 log2 dilutions. Further, in series [4], the “MIC potentiation of meropenem (x.log2 dilutions), K. pneumoniae S1-002 (blaVIM-4+)” value is 2 log2 dilutions. The “% inhibition VIM-4” value at VIM-4 is listed as 65% at 100 μM.
